The text below walks through data of US9169252B2 (BRISTOL-MYERS SQUIBB COMPANY, priority 2014, dated 2015).

Where two headings read alike, the source gives them in different places.

For the experiment, the system named is TLR2 induced IL-6 in peripheral blood mononuclear cells (PBMCs). Nature of the experiment: PBMC TLR2 Induced IL-6 Assay. Type of experiment: cell-based, human. The settings on record: IL-6 by ELISA; for EC50: read-out: Cell EC50; for IC50: read-out: Cell IC50. The method, then:
PBMC TLR2 Induced IL-6 Assay
Peripheral blood mononuclear cells (PBMCs) were isolated from human blood containing the anti-coagulant EDTA (2.5 mM) by centrifugation over a FICOLL® gradient. PBMCs (250000 cells/well) were cultured in assay media (RPMI with 10% heat inactivated FCS) with compounds for 30 minutes at 37° C. in a 5% CO2 incubator. Following pretreatment with compounds, cells were stimulated for 5 hours with 10 µg/ml lipoteichoic acid (Invivogen, San Diego, Calif.), a TLR2 agonist. At the end of the culture, plates were centrifuged at 1800 rpm for 10 minutes to pellet the cells.

Where [1] appears, read: human PBMCs, lipoteichoic acid stimulated.
Setting [2] is: Homo sapiens, PBMC, PBMC TLR2 Induced IL-6 Assay, lipoteichoic acid stimulation.
The mark [3] stands for this setting: PBMC TLR2 Induced IL-6 Assay, lipoteichoic acid stimulation.
The mark [4] stands for this setting: Homo sapiens, PBMC, human PBMCs, lipoteichoic acid stimulated.

In the case of `CC(C)(O)[C@H](F)CNC(=O)c1cnc(-n2ncc3cc(F)cnc32)cc1NC1CCC(O)C1` (mixture of isomers) [Example 611], under setting [1], the EC50 amounted to 0.536 µM and the concentration for half-maximal inhibition (IC50) stood at 1.85 µM.

Take `CC(C)(O)[C@H](F)CNC(=O)c1cnc(-n2ccc3cc(C#N)cnc32)cc1NC1CCCOC1` (single isomer, unassigned) [Example 7]: under setting [2], the 50% effective concentration (EC50) is 0.477 µM and the IC50 was 0.477 µM.

`CC(C)(O)[C@H](F)CNC(=O)c1cnc(-n2ccc3cc(C#N)cnc32)cc1NC1CCCOC1` (single isomer, unassigned) [Example 8]: under setting [3], the EC50 is 0.695 µM and the IC50 worked out at 0.695 µM.

Consider `CC(C)(O)[C@H](F)CNC(=O)c1cnc(-n2ccc3cc(C#N)cnc32)cc1NC1CCC(O)C1` (single isomer, unassigned) [Example 24], for which the EC50 under setting [3] worked out at 0.03 µM.

With `CC(C)(O)[C@H](F)CNC(=O)c1cnc(-n2ccc3cc(C#N)cnc32)cc1NC1CCC(O)C1` (single isomer, unassigned) [Example 25], the EC50 under setting [3] turned out to be 0.022 µM.

In the case of `CC(C)(O)[C@H](F)CNC(=O)c1cnc(-n2ccc3cc(C#N)cnc32)cc1NC1CCC(O)C1` (single isomer, unassigned) [Example 26], the EC50 under setting [3] was found to be 0.168 µM.

`CC(C)(O)[C@H](F)CNC(=O)c1cnc(-n2ccc3cc(C#N)cnc32)cc1NC1CCC(O)C1` (single isomer, unassigned) [Example 27]: under setting [3], the EC50 turned out to be 0.044 µM.

For the molecule `CC(C)Nc1cc(-n2ccc3cc(C#N)cnc32)ncc1C(=O)NC[C@@H](F)C(C)O` (single isomer, unassigned) [Example 48], under setting [3], the EC50 amounted to 0.024 µM.

On to `CC(C)Nc1cc(-n2ccc3cc(C#N)cnc32)ncc1C(=O)NC[C@@H](F)C(C)O` (single isomer, unassigned) [Example 49], for which, under setting [3], the EC50 stood at 0.071 µM.

For `CC(C)(O)[C@H](F)CNC(=O)c1cnc(-n2ccc3cc(C#N)cnc32)cc1N[C@@H]1COC[C@H]1F` (single isomer, unassigned) [Example 458], the IC50 under setting [4] amounted to 0.26 µM. Moreover, the EC50 under setting [1] came to 0.261 µM.

Turning to `CC(C)(O)[C@H](F)CNC(=O)c1cnc(-n2ccc3cc(C#N)cnc32)cc1N[C@@H]1COC[C@H]1F` (single isomer, unassigned) [Example 459], under setting [1], the EC50 came to 0.095 µM and the IC50 amounted to 0.343 µM.

As for `CC(O)CCNc1cc(-n2ncc3cc(C#N)cnc32)ncc1C(=O)NC[C@@H](F)C(C)(C)O` (single isomer, unassigned) [Example 572], under setting [4], the IC50 was determined as 0.303 µM.

As to `CC(O)CCNc1cc(-n2ncc3cc(C#N)cnc32)ncc1C(=O)NC[C@@H](F)C(C)(C)O` (single isomer, unassigned) [Example 573], the EC50 under setting [4] is 0.729 µM. Besides, under setting [1], the IC50 came to 0.27 µM.

`CC(C)(O)[C@H](F)CNC(=O)c1cnc(-n2ncc3cc(F)cnc32)cc1NC1CCC(O)C1` (single isomer, unassigned) [Example 609]: under setting [1], the EC50 was 0.485 µM and the IC50 is 1.44 µM.

As to `CC(C)(O)[C@H](F)CNC(=O)c1cnc(-n2ncc3cc(F)cnc32)cc1NC1CCC(O)C1` (single isomer, unassigned) [Example 610], under setting [1], the EC50 was 0.166 µM and the IC50 was 0.217 µM.

For the molecule `CC(C)(O)[C@H](F)CNC(=O)c1cnc(-n2ncc3cc(Cl)cnc32)cc1N[C@@H]1C[C@H]1CO` (single isomer, unassigned) [Example 645], the IC50 under setting [1] was determined as 0.154 µM.

Take `CC(C)(O)[C@H](F)CNC(=O)c1cnc(-n2ncc3cc(Cl)cnc32)cc1N[C@@H]1C[C@H]1CO` (single isomer, unassigned) [Example 646]: the IC50 under setting [1] came out at 0.393 µM.

As to `COc1cccc(Nc2cc(-n3ccc4cc(C#N)cnc43)ncc2C(=O)NC[C@@H](F)C(C)(C)O)c1` [Example 51, (R)-6-(5-cyano-1H-pyrrolo[2,3-b]pyridin-1-yl)-N-(2-fluoro-3-hydroxy-3-methylbutyl)-4-((3-methoxyphenyl)amino)nicotinamide], the concentration giving a half-maximal response (EC50) under setting [2] was found to be 0.065 µM.

Consider `CC(C)Nc1cc(-n2ccc3cc(Cl)cnc32)ncc1C(=O)NC[C@@H](F)C(C)(C)O` [Example 76, (R)-6-(5-chloro-1H-pyrrolo[2,3-b]pyridin-1-yl)-N-(2-fluoro-3-hydroxy-3-methylbutyl)-4-(isopropylamino) nicotinamide], for which, under setting [2], the IC50 was found to be 0.395 µM.

Take `CNC(=O)[C@H]1CC[C@H](NC(=O)c2cnc(-n3ccc4cc(C#N)cnc43)cc2NC2CCOCC2)CC1` [Example 86, 6-(5-cyano-1H-pyrrolo[2,3-b]pyridin-1-yl)-N-((trans)-4-(methylcarbamoyl)cyclohexyl)-4-((tetrahydro-2H-pyran-4-yl)amino)nicotinamide]: the EC50 under setting [2] came out at 0.11 µM.

`CC(C)Nc1cc(-n2ccc3cc(C#N)cnc32)ncc1C(=O)N[C@H]1CC[C@H]([N+](=O)[O-])CC1` [Example 95, 6-(5-cyano-1H-pyrrolo[2,3-b]pyridin-1-yl)-4-(isopropylamino)-N-((trans)-4-nitrocyclohexyl)nicotinamide]: the EC50 under setting [2] was 0.408 µM.

With `CC(C)(O)[C@H](F)CNC(=O)c1cnc(-n2ccc3cc(C#N)cnc32)cc1NC1CCCC(F)(F)C1O` (stereo partly drawn) [Example 111, 6-(5-cyano-1H-pyrrolo[2,3-b]pyridin-1-yl)-4-((3,3-difluoro-2-hydroxycyclohexyl)amino)-N—((R)-2-fluoro-3-hydroxy-3-methylbutyl) nicotinamide], the EC50 under setting [2] amounted to 0.238 µM.

For `CC(C)(O)[C@H](F)CNC(=O)c1cnc(-n2ncc3cncnc32)cc1NC1CC1` [Example 134, (R)-4-(cyclopropylamino)-N-(2-fluoro-3-hydroxy-3-methylbutyl)-6-(1H-pyrazolo[3,4-d]pyrimidin-1-yl)nicotinamide], the EC50 under setting [2] amounted to 0.282 µM.

`CC(C)(O)[C@H](F)CNC(=O)c1cnc(-n2ncc3cc(Cl)cnc32)cc1NC1CCOCC1` [Example 135, (R)-6-(5-chloro-1H-pyrazolo[3,4-b]pyridin-1-yl)-N-(2-fluoro-3-hydroxy-3-methylbutyl)-4-((tetrahydro-2H-pyran-4-yl)amino) nicotinamide]: under setting [2], the EC50 was 0.168 µM.

Turning to `CC(C)(O)[C@H](F)CNC(=O)c1cnc(-n2ncc3cc(Cl)cnc32)cc1NC1CC1` [Example 136, (R)-6-(5-chloro-1H-pyrazolo[3,4-b]pyridin-1-yl)-4-(cyclopropylamino)-N-(2-fluoro-3-hydroxy-3-methylbutyl)nicotinamide], the EC50 under setting [2] stood at 0.133 µM.

Consider `CC(C)Nc1cc(-n2ncc3cc(Cl)cnc32)ncc1C(=O)NC[C@@H](F)C(C)(C)O` [Example 137, (R)-6-(5-chloro-1H-pyrazolo[3,4-b]pyridin-1-yl)-N-(2-fluoro-3-hydroxy-3-methylbutyl)-4-(isopropylamino)nicotinamide], for which the EC50 under setting [2] is 0.084 µM.

As to `CC(C)Nc1cc(-n2ncc3cc(O)cnc32)ncc1C(=O)NC[C@@H](F)C(C)(C)O` [Example 153, (R)—N-(2-fluoro-3-hydroxy-3-methylbutyl)-6-(5-hydroxy-1H-pyrazolo[3,4-b]pyridin-1-yl)-4-(isopropylamino)nicotinamide], the EC50 under setting [2] was 0.16 µM.

As for `CC(C)Nc1cc(-n2cnc3cncnc32)ncc1C(=O)NC[C@@H](F)C(C)(C)O` [Example 170, (R)—N-(2-Fluoro-3-hydroxy-3-methylbutyl)-4-(isopropylamino)-6-(9H-purin-9-yl) nicotinamide], the EC50 under setting [2] amounted to 0.423 µM.

For `CC(C)Nc1cc(-n2ccc3cc(C#N)cnc32)ncc1C(=O)N[C@H]1CC[C@](O)(c2ccnn2C)CC1` [Example 173, 6-(5-Cyano-1H-pyrrolo[2,3-b]pyridin-1-yl)-N-((1s,4s)-4-hydroxy-4-(1-methyl-1H-pyrazol-5-yl)cyclohexyl)-4-(isopropylamino)nicotinamide], under setting [2], the EC50 amounted to 0.081 µM and the IC50 was 0.242 µM.

In the case of `CC(C)Nc1cc(-n2ncc3cc(C#N)cnc32)ncc1C(=O)NCC1CCS(=O)(=O)C1` (stereo not drawn) [Example 209], the EC50 under setting [2] came to 0.322 µM.

Turning to `CC(C)Nc1cc(-n2ncc3cc(C#N)cnc32)ncc1C(=O)N[C@H]1CC[C@H](NC(=O)[C@H](C)O)CC1` [Example 274], under setting [2], the IC50 is 0.204 µM.

Consider `CC(C)Nc1cc(-n2ncc3cc(Cl)c(N)nc32)ncc1C(=O)NC[C@@H](F)C(C)(C)O` [Example 282], for which the IC50 under setting [2] is 0.541 µM.

In the case of `CC(C)Nc1cc(-n2ncc3cc(C#N)cnc32)ncc1C(=O)N[C@H]1CC[C@H](NC(=O)[C@@H](C)O)CC1` [Example 287], the IC50 under setting [2] was 0.489 µM.

In the case of `CC(Nc1cc(-n2ncc3cc(C#N)cnc32)ncc1C(=O)NC[C@@H](F)C(C)(C)O)C(F)(F)F` (stereo partly drawn) [Example 297], the IC50 under setting [2] came out at 0.219 µM.

Regarding `CCCNc1cc(-n2ncc3cc(C#N)cnc32)ncc1C(=O)NC[C@@H](F)C(C)(C)O` [Example 337], under setting [2], the EC50 was found to be 0.572 µM and the IC50 turned out to be 0.765 µM.

Take `Cn1cc(Nc2cc(-n3ncc4cc(C#N)cnc43)ncc2C(=O)NC[C@@H](F)C(C)(C)O)cn1` [Example 387]: under setting [2], the IC50 came out at 0.198 µM.

On to `CC(C)Nc1cc(-n2ccc3cc(C#N)ccc32)ncc1C(=O)N[C@H]1CC[C@H](C(C)(C)O)CC1` [Example 414, 6-(5-Cyano-1H-indol-1-yl)-N-((1R,4R)-4-(2-hydroxypropan-2-yl)cyclohexyl)-4-(isopropylamino)nicotinamide], for which the EC50 under setting [4] is 0.188 µM.

Take `COC(C)(C)[C@H](F)CNC(=O)c1cnc(-n2ccc3cc(C#N)cnc32)cc1NC(C)C` [Example 434]: under setting [4], the EC50 came out at 0.057 µM.
